This test deals with glucan synthase (GS) prepared from Candida albicans MY1055 (Candida albicans, UniProt O13428). Put plainly: Glucan synthase inhibition (polymerization assay, 96-well). It counts as biochemical. The conditions noted are these: GS from C. albicans MY1055; 60 min incubation at 22° C.; read-out: Candida Albicans GS IC50 (converted). The method, boiled down:
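Partially purified glucan synthase from C. albicans MY1055 membranes incorporated 0.5 mM ³H-UDPG with 25 μM GTP-γ-S, HEPES pH 7.5, over 60 min at 22 °C. TCA-precipitated glucan was counted by scintillation. IC50 (ng/mL) came from sigmoidal fits of duplicate 3-fold dilution series.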
Chain of glucan synthase (GS) prepared from Candida albicans MY1055 (O13428 1-1897): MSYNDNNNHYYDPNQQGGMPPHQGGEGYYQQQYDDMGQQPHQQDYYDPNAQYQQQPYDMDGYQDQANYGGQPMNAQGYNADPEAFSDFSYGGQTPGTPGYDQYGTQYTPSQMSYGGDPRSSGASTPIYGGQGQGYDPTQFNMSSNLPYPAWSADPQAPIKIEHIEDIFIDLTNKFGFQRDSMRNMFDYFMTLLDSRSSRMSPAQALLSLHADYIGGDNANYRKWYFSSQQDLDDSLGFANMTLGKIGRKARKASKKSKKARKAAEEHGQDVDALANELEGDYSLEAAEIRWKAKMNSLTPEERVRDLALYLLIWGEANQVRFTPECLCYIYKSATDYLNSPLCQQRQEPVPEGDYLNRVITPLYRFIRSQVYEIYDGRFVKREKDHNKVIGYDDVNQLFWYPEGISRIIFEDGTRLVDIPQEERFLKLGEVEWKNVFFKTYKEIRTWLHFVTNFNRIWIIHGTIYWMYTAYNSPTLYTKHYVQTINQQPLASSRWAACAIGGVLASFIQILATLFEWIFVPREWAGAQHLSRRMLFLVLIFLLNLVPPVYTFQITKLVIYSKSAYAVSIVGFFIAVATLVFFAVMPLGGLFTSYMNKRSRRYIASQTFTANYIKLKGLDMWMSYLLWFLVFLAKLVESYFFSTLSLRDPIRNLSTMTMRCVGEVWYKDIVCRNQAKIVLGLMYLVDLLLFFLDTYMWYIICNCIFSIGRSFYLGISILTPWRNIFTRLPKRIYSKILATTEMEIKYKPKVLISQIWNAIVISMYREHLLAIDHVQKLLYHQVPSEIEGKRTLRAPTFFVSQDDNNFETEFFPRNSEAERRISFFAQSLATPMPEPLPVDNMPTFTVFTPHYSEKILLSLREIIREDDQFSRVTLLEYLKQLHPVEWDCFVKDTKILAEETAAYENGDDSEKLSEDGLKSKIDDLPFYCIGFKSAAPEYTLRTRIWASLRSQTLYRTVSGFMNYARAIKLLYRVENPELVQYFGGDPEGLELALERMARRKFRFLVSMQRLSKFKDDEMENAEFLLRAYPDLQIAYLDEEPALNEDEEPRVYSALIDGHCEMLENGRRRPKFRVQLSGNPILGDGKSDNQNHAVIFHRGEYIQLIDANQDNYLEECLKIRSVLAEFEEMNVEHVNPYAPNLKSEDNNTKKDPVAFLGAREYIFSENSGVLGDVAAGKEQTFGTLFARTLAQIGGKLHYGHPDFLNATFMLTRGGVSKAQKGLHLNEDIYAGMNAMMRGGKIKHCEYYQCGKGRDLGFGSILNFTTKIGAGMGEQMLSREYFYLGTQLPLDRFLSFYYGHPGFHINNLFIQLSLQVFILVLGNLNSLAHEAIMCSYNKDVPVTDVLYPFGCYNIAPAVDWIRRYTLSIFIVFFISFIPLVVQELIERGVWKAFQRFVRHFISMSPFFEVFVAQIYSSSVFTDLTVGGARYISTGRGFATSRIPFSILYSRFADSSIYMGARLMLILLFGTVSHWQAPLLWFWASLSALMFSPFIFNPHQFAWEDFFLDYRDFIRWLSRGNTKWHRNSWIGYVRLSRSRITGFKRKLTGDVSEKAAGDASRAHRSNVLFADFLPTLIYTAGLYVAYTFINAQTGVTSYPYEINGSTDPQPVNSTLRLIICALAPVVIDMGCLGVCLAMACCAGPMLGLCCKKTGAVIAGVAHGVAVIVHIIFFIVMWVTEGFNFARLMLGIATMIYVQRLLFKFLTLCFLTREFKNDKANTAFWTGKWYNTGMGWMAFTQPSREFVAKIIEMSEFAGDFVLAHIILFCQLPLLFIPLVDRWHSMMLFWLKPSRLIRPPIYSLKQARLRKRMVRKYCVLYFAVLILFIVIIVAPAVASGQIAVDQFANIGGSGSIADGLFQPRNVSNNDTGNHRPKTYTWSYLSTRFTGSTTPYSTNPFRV
In the case of `CC(C)[C@@H](C)[C@@]1(C)CC[C@]2(C)[C@H]3CC[C@@H]4[C@@]5(COC[C@@]4(C)[C@@H](OC[C@](C)(N)c4ccccc4)[C@H](n4ncnc4-c4ccncc4)C5)C3=CC[C@@]2(C)[C@@H]1C(=O)O` [Example 245, (1S,4aR,6aS,7R,8R,10aR,10bR,12aR,14R,15R)-15-[[(2R)-2-amino-2-phenylpropyl]oxy]-8-[(1R)-1,2-dimethylpropyl]-14-[5-(4-pyridinyl)-1H-1,2,4-triazol-1-yl]-1,6,6a,7,8,9,10,10a,10b,11,12,12a-dodecahydro-1,6a,8,10a-tetramethyl-4H-1,4a-propano-2H-phenanthro[1,2-c]pyran-7-carboxylic acid], the half-inhibitory concentration (IC50) was 8 nM.
The same measure for `CCCNC(=O)c1ncnn1[C@@H]1C[C@@]23COC[C@](C)([C@@H]2CC[C@H]2C3=CC[C@@]3(C)[C@H](C(=O)O)[C@@](C)([C@H](C)C(C)C)CC[C@]23C)[C@H]1OC[C@@](C)(N)C(C)C` [Example 105, (1S,4aR,6aS,7R,8R,10aR,10bR,12aR,14R,15R)-15-[[(2S)-2-amino-2,3-dimethylbutyl]oxy]-8-[(1R)-1,2-dimethylpropyl]-14-[5-[(propylamino)carbonyl]-1H-1,2,4-triazol-1-yl]-1,6,6a,7,8,9,10,10a,10b,11,12,12a-dodecahydro-1,6a,8,10a-tetramethyl-4H-1,4a-propano-2H-phenanthro[1,2-c]pyran-7-carboxylic acid]: 29 nM.
The same measure for `CC(C)[C@@H](C)[C@@]1(C)CC[C@]2(C)[C@H]3CC[C@@H]4[C@@]5(COC[C@@]4(C)[C@@H](OC[C@](C)(N)C(C)C)[C@H](n4cnc(Br)n4)C5)C3=CC[C@@]2(C)[C@@H]1C(=O)O` [Example 6C, (1S,4aR,6aS,7R,8R,10aR,10bR,12aR,14R,15R)-15-[[(2R)-2-amino-2,3-dimethylbutyl]oxy]-14-(3-bromo-1H-1,2,4-triazol-1-yl)-8-[(1R)-1,2-dimethylpropyl]-1,6,6a,7,8,9,10,10a,10b,11,12,12a-dodecahydro-1,6a,8,10a-tetramethyl-4H-1,4a-propano-2H-phenanthro[1,2-c]pyran-7-carboxylic acid]: 47.4 nM.
On to `CC(C)[C@@H](C)[C@@]1(C)CC[C@]2(C)[C@H]3CC[C@@H]4[C@@]5(COC[C@@]4(C)[C@@H](OC[C@](C)(N)C(C)(C)C)[C@H](n4ncnc4-c4ccc(C6=NCCN6)cc4)C5)C3=CC[C@@]2(C)[C@@H]1C(=O)O` [Example 268, (1S,4aR,6aS,7R,8R,8R,10aR,10bR,12aR,14R,15R)-15-[[(2R)-2-amino-2,3,3-trimethylbutyl]oxy]-14-[5-[4-(4,5-dihydro-1H-imidazol-2-yl)phenyl]-1H-1,2,4-triazol-1-yl]-8-[(1R)-1,2-dimethylpropyl]-1,6,6a,7,8,9,10,10a,10b,11,12,12a-dodecahydro-1,6a,8,10a-tetramethyl-4H-1,4a-propano-2H-phenanthro[1,2-c]pyran-7-carboxylic acid], for which the IC50 was 0.376 nM.
Turning to `CC(C)[C@@H](C)[C@@]1(C)CC[C@]2(C)[C@H]3CC[C@@H]4[C@@]5(COC[C@@]4(C)[C@@H](OC[C@](C)(N)C(C)C)[C@H](n4ncnc4C(=O)NCCN(C)C)C5)C3=CC[C@@]2(C)[C@@H]1C(=O)O` [Example 83, (1S,4aR,6aS,7R,8R,10aR,10bR,12aR,14R,15R)-15-[[(2R)-2-amino-2,3-dimethylbutyl]oxy]-14-[5-[[[2-(dimethylamino)ethyl]amino]carbonyl]-1H-1,2,4-triazol-1-yl]-8-[(1R)-1,2-dimethylpropyl]-1,6,6a,7,8,9,10,10a,10b,11,12,12a-dodecahydro-1,6a,8,10a-tetramethyl-4H-1,4a-propano-2H-phenanthro[1,2-c]pyran-7-carboxylic acid], the IC50 was 12 nM.
As for `CC(C)[C@@H](C)[C@@]1(C)CC[C@]2(C)[C@H]3CC[C@@H]4[C@@]5(COC[C@@]4(C)[C@@H](OC[C@](C)(N)C(C)C)[C@H](n4ncnc4-c4ccnc(-c6cccnc6)c4)C5)C3=CC[C@@]2(C)[C@@H]1C(=O)O` [Example 272, (1S,4aR,6aS,7R,8R,10aR,10bR,12aR,14R,15R)-15-[[(2R)-2-amino-2,3-dimethylbutyl]oxy]-14-(5-[2,3′-bipyridin]-4-yl-1H-1,2,4-triazol-1-yl)-8-[(1R)-1,2-dimethylpropyl]-1,6,6a,7,8,9,10,10a,10b,11,12,12a-dodecahydro-1,6a,8,10a-tetramethyl-4H-1,4a-propano-2H-phenanthro[1,2-c]pyran-7-carboxylic acid], the figure is 10.1 nM.
The same measure for `CCCc1ncnn1[C@@H]1C[C@@]23COC[C@](C)([C@@H]2CC[C@H]2C3=CC[C@@]3(C)[C@H](C(=O)O)[C@@](C)([C@H](C)C(C)C)CC[C@]23C)[C@H]1OC[C@](C)(N)C(C)C` [Example 169, (1S,4aR,6aS,7R,8R,10aR,10bR,12aR,14R,15R)-15-[[(2R)-2-amino-2,3-dimethylbutyl]oxy]-8-[(1R)-1,2-dimethylpropyl]-14-(5-propyl-1H-1,2,4-triazol-1-yl)-1,6,6a,7,8,9,10,10a,10b,11,12,12a-dodecahydro-1,6a,8,10a-tetramethyl-4H-1,4a-propano-2H-phenanthro[1,2-c]pyran-7-carboxylic acid]: 4.41 nM; for `CC(C)[C@@H](C)[C@@]1(C)CC[C@]2(C)[C@H]3CC[C@@H]4[C@@]5(COC[C@@]4(C)[C@@H](OC[C@](C)(N)C(C)C)[C@H](n4ncnc4N4CCOCC4)C5)C3=CC[C@@]2(C)[C@@H]1C(=O)O` [Example 148, (1S,4aR,6aS,7R,8R,10aR,10bR,12aR,14R,15R)-15-[[(2R)-2-amino-2,3-dimethylbutyl]oxy]-8-[(1R)-1,2-dimethylpropyl]-14-[5-(4-morpholinyl)-1H-1,2,4-triazol-1-yl]-1,6,6a,7,8,9,10,10a,10b,11,12,12a-dodecahydro-1,6a,8,10a-tetramethyl-4H-1,4a-propano-2H-phenanthro[1,2-c]pyran-7-carboxylic acid]: 18 nM; for `CCC(N)(CC)CO[C@H]1[C@H](n2ncnc2-c2ccncc2)C[C@@]23COC[C@]1(C)[C@@H]2CC[C@H]1C3=CC[C@@]2(C)[C@H](C(=O)O)[C@@](C)([C@H](C)C(C)C)CC[C@]12C` [Example 241, (1S,4aR,6aS,7R,8R,10aR,10bR,12aR,14R,15R)-15-(2-amino-2-ethylbutoxy)-8-[(1R)-1,2-dimethylpropyl]-14-[5-(4-pyridinyl)-1H-1,2,4-triazol-1-yl]-1,6,6a,7,8,9,10,10a,10b,11,12,12a-dodecahydro-1,6a,8,10a-tetramethyl-4H-1,4a-propano-2H-phenanthro[1,2-c]pyran-7-carboxylic acid]: 1.4 nM.
Take `CC(C)[C@@H](C)[C@@]1(C)CC[C@]2(C)[C@H]3CC[C@@H]4[C@@]5(COC[C@@]4(C)[C@@H](OC[C@](C)(N)C(C)C)[C@H](n4nccn4)C5)C3=CC[C@@]2(C)[C@@H]1C(=O)O` (single isomer, unassigned) [Example 288B]: the 50% inhibitory concentration (IC50) was 17.2 nM.
As to `CC(C)[C@@H](C)[C@@]1(C)CC[C@]2(C)[C@H]3CC[C@@H]4[C@@]5(COC[C@@]4(C)[C@@H](OC[C@](C)(N)C(C)(C)C)[C@H](n4ncnc4-c4ccc(C(=O)O)cc4)C5)C3=CC[C@@]2(C)[C@@H]1C(=O)O` [Example 235, (1S,4aR,6aS,7R,8R,10aR,10bR,12aR,14R,15R)-15-[[(2R)-2-amino-2,3,3-trimethylbutyl]oxy]-14-[5-(4-carboxyphenyl)-1H-1,2,4-triazol-1-yl]-8-[(1R)-1,2-dimethylpropyl]-1,6,6a,7,8,9,10,10a,10b,11,12,12a-dodecahydro-1,6a,8,10a-tetramethyl-4H-1,4a-propano-2H-phenanthro[1,2-c]pyran-7-carboxylic acid], the half-maximal inhibitory concentration (IC50) was 6.47 nM.
As for `COC(=O)c1cnnn1[C@@H]1C[C@@]23COC[C@](C)([C@@H]2CC[C@H]2C3=CC[C@@]3(C)[C@H](C(=O)O)[C@@](C)([C@H](C)C(C)C)CC[C@]23C)[C@H]1OC[C@](C)(N)C(C)C` (single isomer, unassigned) [Example 289B], the figure is 126 nM; as for `CC(C)[C@@H](C)[C@@]1(C)CC[C@]2(C)[C@H]3CC[C@@H]4[C@@]5(COC[C@@]4(C)[C@@H](OC[C@](C)(N)C(C)C)[C@H](n4ncnc4-c4ccoc4)C5)C3=CC[C@@]2(C)[C@@H]1C(=O)O` [Example 144, (1S,4aR,6aS,7R,8R,10aR,10bR,12aR,14R,15R)-15-[[(2R)-2-amino-2,3-dimethylbutyl]oxy]-8-[(1R)-1,2-dimethylpropyl]-14-[5-(3-furanyl)-1H-1,2,4-triazol-1-yl]-1,6,6a,7,8,9,10,10a,10b,11,12,12a-dodecahydro-1,6a,8,10a-tetramethyl-4H-1,4a-propano-2H-phenanthro[1,2-c]pyran-7-carboxylic acid], 8.51 nM.
The same measure for `CC(C)[C@@H](C)[C@@]1(C)CC[C@]2(C)[C@H]3CC[C@@H]4[C@@]5(COC[C@@]4(C)[C@@H](OC[C@](C)(N)C(C)(C)C)[C@H](n4cnnc4)C5)C3=CC[C@@]2(C)[C@@H]1C(=O)O` [Example 1B, (1S,4aR,6aS,7R,8R,10aR,10bR,12aR,14R,15R)-15-[[(2R)-2-amino-2,3,3-trimethylbutyl]oxy]-8-[(1R)-1,2-dimethylpropyl]-14-(4H-1,2,4-triazol-4-yl)-1,6,6a,7,8,9,10,10a,10b,11,12,12a-dodecahydro-1,6a,8,10a-tetramethyl-4H-1,4a-propano-2H-phenanthro[1,2-c]pyran-7-carboxylic acid]: 42.9 nM; for `CC(C)[C@@H](C)[C@@]1(C)CC[C@]2(C)[C@H]3CC[C@@H]4[C@@]5(COC[C@@]4(C)[C@@H](OC[C@](C)(N)C(C)(C)C)[C@H](n4ncnc4Br)C5)C3=CC[C@@]2(C)[C@@H]1C(=O)O` [Example 11, (1S,4aR,6aS,7R,8R,10aR,10bR,12aR,14R,15R)-15-[[(2R)-2-amino-2,3,3-trimethylbutyl]oxy]-14-(5-bromo-1H-1,2,4-triazol-1-yl)-8-[(1R)-1,2-dimethylpropyl]-1,6,6a,7,8,9,10,10a,10b,11,12,12a-dodecahydro-1,6a,8,10a-tetramethyl-4H-1,4a-propano-2H-phenanthro[1,2-c]pyran-7-carboxylic acid]: 4.1 nM.

The IC50 is the concentration at which inhibition is half-maximal.

The values are drawn from patent US8188085B2, “Antifungal agents” (Merck Sharp & Dohme Corp., priority 2008, dated 2012).
